US20230372433A1, “NANOPARTICLE FOR ANTI-CANCER PEPTIDES AND USES THEREOF” (KING'S COLLEGE LONDON, priority 2020, published 2023)
Read-outs that look alike come from different tables or passages of the source.

Experiments:
[1] = tested on: HMLER (human breast cancer bulk cell); experiment: MTT cytotoxicity assay, HMLER; assay type: cell-based; conditions: 72 hr, MTT; read-out: IC50 HMLER
[2] = tested on: HMLER-shEcad (human breast cancer stem cell); experiment: MTT cytotoxicity assay, HMLER-shEcad; assay type: cell-based; conditions: 72 hr, MTT; read-out: IC50 HMLER-shEcad
[3] = tested on: MCF-10A (human breast epithelial cell); experiment: cells
From the text: HMLER (human mammary endothelial cancer cells), HMLER-shEcad (human mammary endothelial cancer stem cells), and MCF-10A (healthy human mammary endothelial) cells were maintained in Mammary Epithelial Cell Growth Medium (MEGM) with supplements and growth factors: bovine pituitary extract (BPE), hydrocortisone, human epidermal growth factor (hEGF), insulin, and gentamicin/amphotericin-B. HEK293T (human embryonic kidney cell), and U2OS (homo sapiens bone osteosarcoma) cells were maintained in Dulbecco's Modified Eagle's Medium (DMEM) with a final concentration of 10% fetal bovine serum. The cells were grown in T75 flask at 310 K in a humidified atmosphere containing 5% CO2.
The colourimetric MTT (3-(4,5-dimethylthiazol-2-yl)-2,5-diphenyltetrazolium bromide) assay was used to determine the toxicity of the anti-cancer peptides and conventional anti-cancer drugs. 5×10^3 cells were seeded in each well of a 96-well microplate. The cells were incubated overnight. Elevated concentrations of the compounds (0, 0.1, 0.2, 0.4, 0.8, 1.6, 3.1, 6.3, 12.5, 25, 50 and 100 μM) were added and incubated for 72 hr with a total volume 200 μL. The stock solutions of the compounds were prepared as 5 mM solutions in DMSO and diluted using media or in pure water. The final concentration of DMSO in each well was either 0.5% or 0% and this amount was present in the untreated control. After 72 hr, 20 μL of a 4 mg/mL solution of MTT in PBS was added to each well, and the plate was incubated for an additional 4 hr. The MEGM/MTT mixture was aspirated and 100 μL of DMSO was added to dissolve the resulting purple formazan crystals. The absorbance of the solutions in each well was read at 550 nm wavelength. Absorbance values were normalized to either DMSO-containing or non DMSO-containing control wells and plotted as concentration of test compound versus % cell viability. ICso values were interpolated from the resulting dose dependent curves.
The peptides were screened against several different human cell lines and their cytotoxicity were determined. Cell lines utilised include MCF-10A (human breast epithelial cell), HMLER (human breast cancer bulk cell), HMLER-shEcad (human breast cancer stem cell), HEK293T (human embryonic kidney cell), and U2OS (human bone osteosarcoma).

[4] = tested on: U2OS (human bone osteosarcoma); experiment: MTT cytotoxicity assay, U2OS; assay type: cell-based; conditions: 72 hr
[5] = tested on: HEK293T (human embryonic kidney cell); experiment: MTT cytotoxicity assay, HEK293T; assay type: cell-based; conditions: 72 hr, MTT; read-out: IC50 HEK293T
[6] = Tryptophan fluorescent binding assay, POPC vesicles; conditions: 50 μM peptide, PBS pH 7.4
Procedure: (§1) In brief, 50 μM peptides were fixed and incubated with titrated POPC vesicles (black) or 3POPC/1POPG vesicles (grey) at concentrations of 0, 12.5, 25, 50, 100, 250, 500, 1000, 2500, and 5000 μM in phosphate buffered saline (1X, pH 7.4). The lipid concentration that causes 50% peptide binding was determined using a tryptophan fluorescent binding assay and the values are shown as lipid per peptide.
(§2) The lipids 1-palmitoyl-2-oleoyl-sn-glycero-3-phosphocholine (POPC), 1-palmitoyl-2-oleoyl-snglycero-3-phospho-(1′-rac-glycerol) (POPG) were purchased from Avanti Polar Lipids and dissolved in chloroform. Large unilamellar vesicles (LUVs) were produced by extrusion through 100 nm pore filter using an extruder and filters purchased from Avanti Polar Lipids.
(§3) Peptides (50 μM) and POPC/POPG LUVs (600 μM) were prepared in 10 mM phosphate buffer (pH 7.0). The solutions were incubated and measured after 60 minutes. Excitation was fixed at 280 nm (slit 9 nm) and emission was collected from 300 to 450 nm (slit 9 nm). The spectra were recorded using a Synergy H1 Hybrid Multi-Mode Reader (FIG. 3A) and Cytation™ 5 Cell Imaging Multi-Mode Reader (FIG. 2) from BioTek and were averaged over 3 scans.
(§4) Table 3 illustrates the lipid concentration-induced 50% peptide binding onto a liposome. 50 μM peptide was fixed and incubated with titrated lipid (POPC vesicles or 3POPC/1POPG vesicles) at concentrations of 0, 12.5, 25, 50, 100, 250, 500, 1000, 2500, and 5000 μM in phosphate buffered saline (1X, pH 7.4). The lipid concentration that causes 50% peptide binding was determined using tryptophan fluorescent binding assay and the values are shown as lipid per peptide. IN-terminus is free, C-terminus: —W—NH2.

[7] = Tryptophan fluorescent binding assay, 3POPC/1POPG vesicles; conditions: 50 μM peptide, PBS pH 7.4
Procedure: as §1, §2, §3, §4

[8] = ANTS/DPX liposome leakage assay, POPC vesicles; assay type: biochemical; conditions: 0.5 mM vesicles
Procedure: (§5) In brief, 0.5 mM POPC vesicles (grey) or POPC:POPG vesicles (ratio 3:1, black) were incubated with peptide concentrations of 0, 0.02, 0.04, 0.08, 0.16, 0.32, 0.64, 1.25, 2.5, 5, 10, and 20 μM in each A) hydrochloric acid-adjusted phosphate buffered saline (1X, pH 4.8) and B) phosphate buffered saline (1X, pH 7.4).
as §2
(§6) 5 mM ANTS (8-aminonaphthalene-1,3,6-trisulfonic acid, disodium salt) and 12.5 mM DPX (p-xylene-bis-pyridinium bromide) were entrapped in 0.1 μm diameter extruded vesicles with lipids. Gel filtration chromatography using a Sephadex G-100 (GE Healthcare Life Sciences Inc) was used to remove external free ANTS/DPX from LUVs with entrapped contents. LUVs were diluted to 0.5 mM and used to measure the leakage activity by addition of aliquots of peptides. Leakage was measured after 3 h incubation. 10% Triton was used as the positive control to measure the maximum leakage of the vesicle. Fluorescence emission spectra were recorded using excitation and emission wavelength of 350 nm and 510 nm for ANTS/DPX using a BioTek Synergy H1 Hybrid Multi-Mode Reader.
(§7) Table 4 illustrates peptide concentration-induced 50 ANTS/DPX liposome leakage. 0.5 mM POPC and 3POPC/1POPG vesicles were fixed and incubated with titrated peptide concentration (0, 0.02, 0.04, 0.08, 0.16, 0.32, 0.64, 1.25, 2.5, 5, 10, and 20 μM) each in phosphate buffered saline (1X, pH 7.4) and hydrochloric acid-adjusted phosphate buffered saline (1X, pH 4.8). The values are shown as lipid per peptide. IN-terminus is free, C-terminus: —W—NH2.

[9] = ANTS/DPX liposome leakage assay, 3POPC/1POPG vesicles; assay type: biochemical; conditions: for Peptide Concentration-induced 50% ANTS/DPX leakage at pH 4.8 (L/P) 3POPC/1POPG Vesicle / Peptide Concentration-induced 50% ANTS/DPX leakage at pH 7.4 (L/P) 3POPC/1POPG Vesicle: 0.5 mM vesicles; for liposome leakage activity from anionic vesicle at pH 4.8: compared with zwitterionic vesicle
Procedure: as §5, §2, §6, §7

Row | Compound | IC50 [1] [µM] | IC50 [2] [µM] | IC50 [3] [µM] | IC50 [4] [µM] | IC50 [5] [µM] | Lipid Concentration-induced 50% Peptide Binding (L/P) POPC Vesicle [6] [L/P] | Lipid Concentration-induced 50% Peptide Binding (L/P) 3POPC/1POPG Vesicle [7] [L/P] | Peptide Concentration-induced 50% ANTS/DPX leakage at pH 4.8 (L/P) POPC Vesicle [8] [L/P] | Peptide Concentration-induced 50% ANTS/DPX leakage at pH 7.4 (L/P) POPC Vesicle [8] [L/P] | Peptide Concentration-induced 50% ANTS/DPX leakage at pH 4.8 (L/P) 3POPC/1POPG Vesicle [9] [L/P] | Peptide Concentration-induced 50% ANTS/DPX leakage at pH 7.4 (L/P) 3POPC/1POPG Vesicle [9] [L/P] | liposome leakage activity from anionic vesicle at pH 4.8 [9] | IC50 ([3]; read-out: IC50 MCF-10A, 72 hr, MTT) [µM]
1 | CC(C)C[C@H](NC(=O)CN)C(=O)N[C@@H](CC(C)C)C(=O)N[C@@H](CCC(=O)O)C(=O)N[C@@H](CC(C)C)C(=O)N[C@@H](CC(C)C)C(=O)N[C@@H](CCC(=O)O)C(=O)N[C@@H](CC(C)C)C(=O)N[C@@H](CC(C)C)C(=O)N[C@@H](CC(C)C)C(=O)N[C@@H](CCC(=O)O)C(=O)N[C@@H](C)C(=O)N[C@@H](C)C(=O)NCC(=O)N[C@@H](Cc1c[nH]c2ccccc12)C(N)=O [EEE] | 6.25 ± 1.77 | 10.6 ± 3.46 | ≥ 100 | 78.8 ± 5.3 | 50 | 1.33 | 4.50 | 35 | 143 | 28 | 346 | – | –
2 | CC(C)C[C@H](NC(=O)CN)C(=O)N[C@@H](CC(C)C)C(=O)N[C@@H](CCC(=O)O)C(=O)N[C@@H](CC(C)C)C(=O)N[C@@H](CC(C)C)C(=O)N[C@@H](CCC(=O)O)C(=O)N[C@@H](CC(C)C)C(=O)N[C@@H](CC(C)C)C(=O)N[C@@H](CC(C)C)C(=O)N[C@@H](Cc1c[nH]cn1)C(=O)N[C@@H](C)C(=O)N[C@@H](C)C(=O)NCC(=O)N[C@@H](Cc1c[nH]c2ccccc12)C(N)=O [EEH] | 3.3 ± 0.14 | 3.6 ± 0.85 | ≥ 100 | 19.6 ± 3.96 | 12.9 ± 0.14 | 0.50 | 0.50 | 58 | 738 | 168 | 755 | relatively higher liposome leakage activity | –
3 | CC(C)C[C@H](NC(=O)CN)C(=O)N[C@@H](CC(C)C)C(=O)N[C@@H](CCC(=O)O)C(=O)N[C@@H](CC(C)C)C(=O)N[C@@H](CC(C)C)C(=O)N[C@@H](Cc1c[nH]cn1)C(=O)N[C@@H](CC(C)C)C(=O)N[C@@H](CC(C)C)C(=O)N[C@@H](CC(C)C)C(=O)N[C@@H](CCC(=O)O)C(=O)N[C@@H](C)C(=O)N[C@@H](C)C(=O)NCC(=O)N[C@@H](Cc1c[nH]c2ccccc12)C(N)=O [EHE] | 3.9 ± 0.28 | 2.55 ± 0.07 | ≥ 100 | 18.2 ± 1.06 | 13 | 0.44 | 0.44 | 75 | 952 | 384 | 706 | relatively higher liposome leakage activity | –
4 | CC(C)C[C@H](NC(=O)CN)C(=O)N[C@@H](CC(C)C)C(=O)N[C@@H](CCCCN)C(=O)N[C@@H](CC(C)C)C(=O)N[C@@H](CC(C)C)C(=O)N[C@@H](CCC(=O)O)C(=O)N[C@@H](CC(C)C)C(=O)N[C@@H](CC(C)C)C(=O)N[C@@H](CC(C)C)C(=O)N[C@@H](CCC(=O)O)C(=O)N[C@@H](C)C(=O)N[C@@H](C)C(=O)NCC(=O)N[C@@H](Cc1c[nH]c2ccccc12)C(N)=O [KEE] | 3.75 ± 0.78 | 2.05 ± 0.21 | ≥ 100 | 49.4 ± 13.3 | 11.1 ± 1.84 | 0.20 | 0.20 | 97 | 626 | 108 | 657 | – | –
5 | GLLDLLELLLEAAG [DEE] | 5.55 ± 0.35 | 6.05 ± 2.76 | – | 61 ± 1.41 | 9.91 ± 0.44 | 0.63 | 0.38 | 110 | 644 | 164 | 597 | – | 8.4 ± 1.56
